Measured values from patent publication US6514961B1, “Azetidinecarboxamide derivatives for the treatment of CNS disorders” (Vernalis Research Limited, priority 1998, dated 2003).

What was measured:
[1] = system: 3-MPA-induced seizures; test: Antagonism of 3-MPA-induced seizures; assay type: in vivo; conditions: male T/O mice; test drug 30 ng/kg p.o. 60 min before i.v. bolus of 3-MPA; dose of 3-MPA required to evoke a seizure response
Procedure: Antagonism of 3-MPA-Induced Seizures
Several animal seizure models are available for the screening and characterisation of anticonvulsant (antiepileptic) drugs. Most models employ a chemical convulsant to induce seizures and the anticonvulsant potencies of novel compounds are measured in terms of their ability to increase the dose of convulsant required to induce a seizure response (or to prolong the latency to seizure onset following a bolus dose of the convulsant). Most chemical convulsants work by blocking the neurotransmitter function of gamma-aminobutyric acid (GABA), the predominant inhibitory neurotransmitter in the mammalian brain. This can be achieved by blocking the postsynaptic action of GABA using pentylenetetrazol or bicuculline, or via a presynaptic action using a GABA synthesis inhibitor to decrease GABA release into the synapse. In this case, the inhibitor of glutamate decarboxylase (GAD), 3-mercaptopropionic acid (3-MPA), was used as the convulsant challenge agent.
Male albino T/O strain mice (obtained from Tuck) weighing 28-40 g were used in these studies. Animals were assigned randomly to treatment groups and vehicle or test drug (at a dose of […]) were administered p.o. to groups of 12 animals 60 min before the administration of a bolus dose of 3-MPA intravenously. Immediately following 3-MPA administration, each mouse was placed individually into a cage for observation. The seizure response of each animal was scored quantally as present or absent (response or non-response) during the 5 min period immediately following 3-MPA administration. A seizure response was defined as the onset of the initial clonic phase of the seizure (abrupt loss of righting reflex accompanied by vocalisation). The seizure threshold (in terms of mg/kg i.v. of 3-MPA required to evoke a seizure response) was determined in each treatment group by a sequential up/down method followed by modified probit analysis of the quantal data A range of doses of 3-MPA was prepared (12.5-200.0 mg/kg i.v.) increasing by a constant geometric factor […], which was found in pilot studies to generate suitable data for analysis by this method.
In these studies, 3-MPA was obtained from Sigma
Test compounds were prepared as solutions dissolved in 45% w/v aqueous 2-hydroxypropyl-β-cyclodextrin. 3-MPA was dissolved in isotonic saline and its pH adjusted to 6 using 1M sodium hydroxide solution. Drugs were administered in a dose volume of 10 ml/kg body weight.

[2] = Solubility measurement; assay type: physicochemical
[3] = system: anxiety (elevated zero-maze); test: Elevated zero-maze model of anxiolytic activity; assay type: in vivo, rats; conditions: dose of 30 mg/Kg, orally 1 hour prior to zero-maze testing
Source text: Measurement of Anxiolytic Activity in Mice Using the Elevated Zero-maze Model
The elevated “zero-maze” is a modification of the elevated plus-maze model of anxiety which incorporates both traditional and novel ethological measures in the analysis of drug effects (Shepherd, J. K., Grewal, S. S., Fletcher, A., Bill, D. J. and Dourish, C. T., Behavioural and pharmacological characterisation of the elevated “zero-maze” as an animal model of anxiety. Psychopharmacology, 1994, 116, 56-64).
Male Sprague-Dawley rats (Charles River) weighing 300-450 gm are used. Animals are group-housed (5 per cage; cage size: 40×40×20 cm) in a temperature-controlled environment (20±2° C.), under a 12 h light-dark cycle (lights on: 08:00 hours). Food and water are made freely available. Four hours prior to testing, animals are transferred to clean cages and moved to the testing room in order to habituate to the testing environment.
The maze is comprised of a black Perspex annular platform (105 cm diameter, 10 cm width) elevated to 65 cm above ground level, divided equally into four quadrants. […]
Rats are placed on a closed quadrant and a 5 min test period is recorded on video-tape. […] Animals are scored as being in the open area when all four paws were in an open quadrant, and in the closed area only when all four paws passed over the open/closed divide. […]

| Aqueous solubility at 1 mg/ml [2] | Compound | SC = seizure threshold after treatment with test drug [1] [mg/kg i.v.] | other results |
| --- | --- | --- | --- |
|  | C[C@@H](O)CNC(=O)N1CC(Oc2ccc(Cl)c(Cl)c2)C1 [Example 6, (R)-3-(3,4-Dichlorophenoxy)-N-(2-hydroxypropyl)azetidine-1-carboxamide] | 59.5 |  |
| Not soluble | NC(=O)N1CC(Oc2ccc(Cl)cc2)C1 [3-(4-chlorophenoxy)azetidine-1-carboxamide] |  |  |
| Not soluble | CCCNC(=O)N1CC(Oc2ccc(Cl)cc2)C1 [3-(4-chlorophenoxy)-N-(propyl)azetidine-1-carboxamide] |  |  |
|  | C[C@@H](O)CNC(=O)N1CC(Oc2ccc(Cl)cc2)C1 (racemic) [Example 7, (R,S)-3-(4-Chlorophenoxy)-N-(2-hydroxypropyl)azetidine-1-carboximide] |  | anxiolytic activity (increase in the frequency of head dips) [3]: effective |
|  | C[C@@H](O)CNC(=O)N1CC(Oc2ccc(C(C)(C)C)cc2)C1 [Example 1, (R)-3-(4-tert-Butylphenoxy)-N-(2-hydroxypropyl)azetidine-1-carboxamide] | 154.3 | melting point: 98 to 99 °C |
|  | C[C@H](O)CNC(=O)N1CC(Oc2ccc(Cl)cc2)C1 [Example 3, (S)-3-(4-Chlorophenoxy)-N-(2-hydroxypropyl)azetidine-1-carboxamide] | 59.5 |  |
| Not soluble | C=CCNC(=O)N1CC(Oc2ccc(C(F)(F)F)cc2)C1 [3-(4-(trifluoromethyl)phenoxy)-N-(2-propenyl)azetidine-1-carboxamide] |  |  |
|  | CC(C)(O)CNC(=O)N1CC(Oc2ccc(Cl)cc2)C1 [Example 4, 3-(4-Chlorophenoxy)-N-(2-hydroxy-2-methylpropyl)azetidine-1-carboxamide] | 36.9 |  |
|  | C[C@@H](O)CNC(=O)N1CC(Oc2ccc(F)cc2)C1 [Example 5, (R)-3-(4-Fluorophenoxy)-N-(2-hydroxypropyl)azetidine-1-carboxamide] | 29.8 | melting point: 112 to 114 °C |

| Compound | Aqueous solubility at 1 mg/ml [2] | SC = seizure threshold after treatment with test drug [1] [mg/kg i.v.] | other results |
| --- | --- | --- | --- |
| C[C@@H](O)CNC(=O)N1CC(Oc2ccc(Cl)cc2)C1 [Example 2, (R)-3-(4-Chlorophenoxy)-N-(2-hydroxypropyl)azetidine-1-carboxamide] | Soluble | 109.1 |  |
| C[C@@H](O)CNC(=O)N1CC(Oc2ccc(C(F)(F)F)cc2)C1 [Example 8] | Soluble | 214.1 |  |
